Test results taken from patent publication US5885994A, “Tetrahydroquinoxaline dopamine D4 receptor antagonists” (Warner-Lambert Company, priority 1998, dated 1999).
Where two headings read alike, the source gives them in different places.

What was measured:
[1] = system: synthesis rates of rat brain catecholamines; conditions: ip
Procedure: Test compounds were administered to rats i.p. 30 minutes before the injection of the L-aromatic amino acid decarboxylase inhibitor, NSD 1015 (100 mg/kg i.p.). Rats were sacrificed by decapitation 30 minutes later. The striatum and mesolimbic regions were rapidly dissected from the brains and stored at -70° C. until assayed. Synthesis rates of rat brain catecholamines were estimated by measuring the accumulation of the DA precursor DOPA after NSD 1015 administration by HPLC with electrochemical detection (Puglsey, et al., 1995). Each value represents the mean of four determinations and is expressed as a percent of the control values.

human D4.2 receptor = molecular target: T1, human D4.2 receptor (Homo sapiens, UniProt P21917, DEL265-296); test: Inhibition of [3H]spiperone binding to human dopamine D4.2 receptors; conditions: human D4.2, CHO K1 membranes
T1 construct: expressed in transfected cells; host or cells: CHO K1 cells
T1 sequence (P21917 with tags, fused parts or gaps DEL265-296): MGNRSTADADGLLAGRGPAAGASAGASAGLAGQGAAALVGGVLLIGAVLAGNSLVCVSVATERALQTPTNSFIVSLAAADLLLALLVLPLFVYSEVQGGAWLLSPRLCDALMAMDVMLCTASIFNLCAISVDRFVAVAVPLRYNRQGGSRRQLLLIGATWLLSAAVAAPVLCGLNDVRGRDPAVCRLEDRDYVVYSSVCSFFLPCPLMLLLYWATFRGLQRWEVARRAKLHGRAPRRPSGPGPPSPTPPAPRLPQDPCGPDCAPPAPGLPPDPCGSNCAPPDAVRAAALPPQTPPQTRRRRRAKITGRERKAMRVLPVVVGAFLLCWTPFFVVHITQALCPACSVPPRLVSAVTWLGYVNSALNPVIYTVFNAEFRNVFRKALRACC
Text: (§1) A cell line expressing human dopamine D2 (Long form) receptors was purchased from Oregon Health Sciences University, Portland, Oreg. The D2 receptor cDNA was subcloned into an expression vector, pRc/CMV. The plasmids were transfected by electroporation into CHO K1 cells. A single stable transfectant, resistant to the antibiotic 418, was isolated and selected for use in the binding studies. For D4 binding, CHO K1 cells stably transfected to express the human recombinant dopamine D4.2 receptor subtype, as described by Shih, et al., "The expression and functional characterization of human dopamine D4.2 receptor in CHO K1 cells," Soc. Neurosci., 1995;21(Part 1):621.
(§2) CHO K1 cells expressing either human D2 and D4.2 receptors were grown in 162 cm^2 culture flasks in F12 medium (Gibco Laboratories, Grand Island, N.Y.) supplemented with 10% fetal bovine serum (FBS, Hyclone, Logan, Utah) in an atmosphere of 5% CO2 /95% air at 37° C. Cells were grown until confluent, after which growth medium was removed and replaced with 0.02% ethylene diamine tetracetate (EDTA) in a phosphate-buffered saline solution (Sigma Chemical Co., St. Louis, Mo.) and scraped from the flasks. The cells were centrifuged at about 1000×g for 10 minutes at […] and then resuspended in TEM buffer (25 mM Tris-HCl, pH 7.4, 5 mM EDTA, and 6 mM MgCl2) for D2 or the D4.2 buffer (50 mM Tris-HCl, pH 7.4, 5 mM EDTA, 1.5 mM CaCl2, 5 mM KCl, and 120 mM NaCl) and homogenized. The membranes were pelleted by centrifugation at 20,000×g at […] for 20 minutes. Then the pellets were resuspended in appropriate buffer at 1 mL/flask and stored at -70° C. until used in the receptor binding assay.
(§3) Receptor Binding Assays: D2,D4.2 Dopamine Receptors
(§4) After 60 minutes incubation at 25° C., the incubations were terminated by rapid filtration through Whatmann F/B lass fibre filters (soaked for 1 hour in 0.5% polyethylenimine) on a cell harvester, with three washes of 1 mL ice-cold buffer. Individual filter disks containing the bound ligand were placed in counting vials with 4 mL of scintillation fluid (Ready Gel, Beckman Instrument Inc., Fullerton, Calif.) and then counted in a Beckman LS-6800 liquid scintillation counter at an efficiency of 45%. Nonspecific binding was defined in presence of 1 mM of haloperidol.
(§5) Saturation and competition binding data were analyzed using an iterative nonlinear least-square curve-fitting Ligand program. In competition experiments, apparent Ki values were calculated from IC50 values by method of Cheng and Prusoff, "Relationship between the inhibition constant (Ki) and the concentration of inhibitor which causes 50% inhibition (IC50) of an enzymatic reaction," Biochem. Pharmacol., 1973;22:3099-3108. Experimental compounds were made up as stock solutions in dimethyl sulfoxide (DMSO). […] Each observation was carried out in triplicate. To allow these calculations, Ki values were measured for the interaction of various ligands with the receptor. […]

[2] = system: amphetamine-stimulated locomotion; test: Blockade of amphetamine-stimulated locomotion in rats; format: in vivo, rat
Text: PROTOCOL FOR THE BLOCKADE OF AMPHETAMINE-STIMULATED LOCOMOTION IN RATS
The blockade of amphetamine-stimulated locomotion procedure is a modification of the Locomotor Activity Protocol in the Omnitech Digiscan Activity Monitors described above. The blockade of amphetamine-stimulated locomotion procedure uses the central nervous system stimulant d-amphetamine to assess antipsychotic activity of dopaminergic agents.
Male Sprague-Dawley rats (Harlan Labs) were used for these studies. Drugs were dissolved in saline or water, and administered either orally (PO) or intraperitoneally (IP) in volumes of 5 mL/kg. Saline control rats and amphetamine (0.5 mg/kg IP) control rats are included with each study (n=4-6 rats per treatment group). For the IP studies, amphetamine is given 20 minutes prior to the drug, after which a 30 minute locomotor activity test is conducted. For the oral study, drug is dosed 30 minutes prior to the test, while amphetamine is given 15 minutes prior to the test, which allows time for oral absorption. Locomotor activity (centimeters travelled per 30 minute test) is measured in 16"×16" open chambers. Amphetamine generally produces a 2- to 3-fold increase in locomotion over saline controls. Drug effects are reported as percent reversal of amphetamine-stimulated locomotion. Significant changes in amphetamine-stimulated locomotion, relative to amphetamine treated controls, were determined by t-test. The dose which would reverse amphetamine-stimulated locomotion by 50% (ED50) and the 95% confidence limits were estimated by regression analysis.

human DA D4.2 receptor = molecular target: T2, human DA D4.2 receptor (Homo sapiens, UniProt P21917, DEL265-296); test: [3H]Thymidine uptake assay (block of quinpirole stimulation in CHO pro-5 cells transfected with human DA D4.2 receptor); format: cell-based; conditions: human D4.2, quinpirole-stimulated uptake
T2 construct: expressed in transfected cells
T2 sequence (P21917 with tags, fused parts or gaps DEL265-296): T1 sequence (P21917 with tags, fused parts or gaps DEL265-296)
Procedure: Compounds were tested for their ability to bind to dopamine (DA) receptors as measured by their inhibition of [^3 H]spiperone binding to the human D2, and D4.2 receptors (Pugsley, et al., 1995). The ability of test compounds to block the stimulation of [^3 H]thymidine uptake in CHO pro-5 cells transfected with human DA D4.2 receptor cDNA caused by the DA agonist quinpirole was employed as an in vitro measure of DA receptor antagonist activity (Pugsley, et al., 1995). The effects of compounds on synthesis rates of rat brain catecholamines were estimated by measuring the accumulation of [3-(3,4-dihydroxyphenyl)-L-alanine (DOPA) after administration of the L-aromatic amino acid decarboxylase inhibitor, NSD 1015 (Pugsley, et al., 1995).
[^3 H]Thymidine Uptake Assay
The effects of test compounds on [^3 H]thymidine uptake were carried out essentially as described by Pugsley, et al., 1995. CHO p-5 cells transfected with human D4.2 cDNA were seeded into 96-well plates at a density of about 5000 cells/well and were grown at 37° C. in a minimum essential medium (aMEM, Gibco) with 10% calf serum for 2 days. The wells were then rinsed three times with serum-free media. Fresh media ([…]) was added along with […] of test compound in water or vehicle alone. Eight wells of each plate received […] of aMEM with 10% fetal calf serum. After culture for 16 to 17 hours, [3H]thymidine ([…]) was added for 4 hours. The cells were trypsinized and harvested onto filter mats with a 96-well Brandel cell harvester. The filters were counted in a Beta-Plate scintillation counter.

human D2 receptor = human D2 receptor (Homo sapiens, UniProt P14416); test: Inhibition of [3H]spiperone binding to human dopamine D2 receptors; conditions: human D2 (Long form), CHO K1 membranes
Chain of human D2 receptor (P14416 whole entry): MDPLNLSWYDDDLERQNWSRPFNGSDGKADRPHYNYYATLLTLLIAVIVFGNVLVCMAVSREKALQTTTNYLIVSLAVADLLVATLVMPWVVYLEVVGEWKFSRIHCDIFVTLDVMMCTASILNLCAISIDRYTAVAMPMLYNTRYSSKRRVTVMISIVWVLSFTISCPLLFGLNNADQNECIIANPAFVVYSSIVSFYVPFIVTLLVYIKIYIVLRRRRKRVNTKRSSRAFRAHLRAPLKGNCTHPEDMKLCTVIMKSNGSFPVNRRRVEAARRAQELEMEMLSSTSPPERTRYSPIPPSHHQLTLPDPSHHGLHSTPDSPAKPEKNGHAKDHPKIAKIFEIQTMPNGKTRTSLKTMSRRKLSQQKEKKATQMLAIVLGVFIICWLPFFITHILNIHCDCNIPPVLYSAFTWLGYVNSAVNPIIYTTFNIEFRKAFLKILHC
Text: as §1, §2, §3, §4, §5

[3] = system: apomorphine-induced disruption of prepulse inhibition; conditions: rat, background statement; cited from earlier work

**Q.** What does the source list for `Cc1ccc(N2CCN(Cc3ccc4c(c3)NCCN4)CC2)cc1Cl` [Example 1, 6-[4-(3-Chloro-4-methylphenyl)piperazin-1-ylmethyl]-1,2,3,4-tetrahydroquinoxaline]?
**A.** DA Synthesis in Rat Hippocampus [1]: +62% of the control values; DA Synthesis in Rat Striatum [1]: -9% of the control values; IC50 (human D4.2 receptor): 3.9 nM; blockade of amphetamine-stimulated locomotion (result in words) ([2]; rat, 3, 10, and 30 mg/kg IP): dose-dependent blockade; ED50 ([2]; rat, IP, read-out: blockade of amphetamine-stimulated locomotion ED50): 9.1 mg/kg; ED50 ([2]; rat, PO, read-out: oral blockade of amphetamine-stimulated locomotion ED50): > 30 mg/kg; IC50 (human DA D4.2 receptor): 10 nM; IC50 (human D2 receptor): 1810 nM

**Q.** For `c1ccc(N2CCN(Cc3ccc4c(c3)NCCN4)CC2)cc1` [Example 3, 6-(4-Phenylpiperazin-1-ylmethyl)-1,2,3,4-tetrahydroquinoxaline], which IC50 (human D4.2 receptor) is on record?
**A.** 50 nM

**Q.** What about the IC50 (human D2 receptor) of the same compound?
**A.** 3200 nM

**Q.** Which IC50 (human D4.2 receptor) does the source give for `COc1ccc(N2CCN(Cc3ccc4c(c3)NCCN4)CC2)cc1` [Example 4, 6-[4-(4-Methoxyphenyl)piperazin-1-ylmethyl]-1,2,3,4-tetrahydroquinoxaline] here?
**A.** 39.3 nM

**Q.** Which results are given for `Clc1ccc(N2CCN(Cc3ccc4c(c3)NCCN4)CC2)cc1` [Example 5, 6-[4-(4-Chlorophenyl)piperazin-1-ylmethyl]1,2,3,4-tetrahydroquinoxaline]?
**A.** DA Synthesis in Rat Striatum [1]: +20% of the control values; IC50 (human D4.2 receptor): 6 nM; IC50 (human DA D4.2 receptor): 19 nM

**Q.** With `Fc1ccc(N2CCN(Cc3ccc4c(c3)NCCN4)CC2)cc1` [Example 6, 6-[4-(4-Fluorophenyl)piperazin-1-ylmethyl]-1,2,3,4-tetrahydroquinoxaline] as the compound, how does the IC50 (human D4.2 receptor) read?
**A.** 50.6 nM

**Q.** Which results are given for `Clc1ccc(N2CCN(Cc3ccc4c(c3)NCCN4)CC2)cc1Cl` [Example 7, 6-[4-(3,4-Dichlorophenyl)piperazin-1-ylmethyl]-1,2,3,4-tetrahydroquinoxaline]?
**A.** DA Synthesis in Rat Striatum [1]: +23% of the control values; IC50 (human D4.2 receptor): 5 nM; blockade of amphetamine-stimulated locomotion ([2]; rat, 30 mg/kg PO): 100%; IC50 (human D2 receptor): 1650 nM

**Q.** Which “DA Synthesis in Rat Striatum” value [1] does the source give for `Cc1ccc(N2CCN(Cc3ccc4c(c3)NCCN4)CC2)cc1` [Example 8, 6-(4-p-Tolylpiperazin-1-ylmethyl)-1,2,3,4-tetrahydroquinoxaline] here?
**A.** +39% of the control values

**Q.** And the IC50 (human D4.2 receptor)?
**A.** 11.1 nM

**Q.** What about the IC50 (human DA D4.2 receptor) of the same compound?
**A.** 8.2 nM

**Q.** Which IC50 (human D4.2 receptor) does the source give for `Cc1cccc(N2CCN(Cc3ccc4c(c3)NCCN4)CC2)c1` [Example 9, 6-(4-m-Tolylpiperazin-1-ylmethyl)-1,2,3,4-tetrahydroquinoxaline] here?
**A.** 36.3 nM

**Q.** With `Cc1ccnc(N2CCN(Cc3ccc4c(c3)NCCN4)CC2)c1` [Example 10, 6-[4-(4-Methylpyridin-2-yl)piperazin-1-ylmethyl]-1,2,3,4-tetrahydroquinoxaline] as the compound, how does the IC50 (human D4.2 receptor) read?
**A.** 35 nM

**Q.** With `FC(F)(F)c1cccc(N2CCN(Cc3ccc4c(c3)NCCN4)CC2)c1` [Example 11, 6-[4-(3-Trifluoromethylphenyl)piperazin-1-ylmethyl]-1,2,3,4-tetrahydroquinoxaline] as the compound, how does the IC50 (human D4.2 receptor) read?
**A.** 22 nM

**Q.** And the IC50 (human D2 receptor)?
**A.** 683 nM

**Q.** With `CC(N)Cc1ccccc1` (stereo not drawn) [amphetamine] as the compound, how does the “blocking of PPI by DA agonists (result in words)” value [3] read?
**A.** can be blocked

**Q.** With `CN1CCc2cccc3c2[C@H]1Cc1ccc(O)c(O)c1-3` [apomorphine] as the compound, how does the “blocking of PPI by DA agonists (result in words)” value [3] read?
**A.** can be blocked

**Q.** Which “antagonism of DA agonist-induced disruption of PPI (result in words)” value [3] does the source give for `CN1CCN(C2=Nc3cc(Cl)ccc3Nc3ccccc32)CC1` [clozapine] here?
**A.** can be blocked

**Q.** For `O=C(CCCN1CCC(O)(c2ccc(Cl)cc2)CC1)c1ccc(F)cc1` [haloperidol], which “antagonism of DA agonist-induced disruption of PPI (result in words)” value [3] is on record?
**A.** can be antagonized
